# Data published in patent US7223755B2, “Hydroxymorpholinone derivative and medicinal use thereof” (Senju Pharmaceutical Co., Ltd., priority 2002, dated 2007).
# Key:
# [1] = tested on: T1, μ-calpain (derived from human erythrocyte); assay: μ-calpain inhibitory activity (casein substrate, Coomassie brilliant blue); assay type: biochemical; settings: 0.5 mg/mL casein, 30° C. for 60 min; read-out: 50% enzyme inhibitory concentration [IC50 (μM)] μ-calpain
# T1 construct: μ-calpain (derived from human erythrocyte, manufactured by Cosmo Bio Co., Ltd.); purchased Cosmo Bio Co., Ltd; host or cells: human erythrocyte (natural source)
# Protocol: The μ-calpain and m-calpain inhibitory activities were determined according to the method described in a reference [Anal. Biochem. vol. 208, 387-392 (1993)]. To be specific, a reaction mixture (200 μL) containing 0.5 mg/mL casein, 50 mM Tris-HCl buffer (pH 7.4), 20 mM dithiothreitol and 0.03 enzyme unit of μ-calpain (derived from human erythrocyte, manufactured by Cosmo Bio Co., Ltd.) or m-calpain (derived from pig kidney, manufactured by Cosmo Bio Co., Ltd.), dimethyl sulfoxide solution (2.5 μL) containing various concentrations of a test drug and 20 mM aqueous calcium chloride solution (50 μL) were added to a 96 well plate. After reaction at 30° C. for 60 min, the reaction mixture (100 μL) was transferred to a different 96 well plate, and purified water (50 μL) and 50% Coomassie brilliant blue solution (100 μL) were added. The plate was left standing at room temperature for 15 min and absorbance at 595 nm was measured. Using a value, measured after treating in the same manner without a test drug, as a control and a value, obtained by adding 1 mM EDTA instead of 20 mM aqueous calcium chloride solution, as a blank value, an inhibitory rate was calculated from the following formula and the amount (IC50) necessary for 50% inhibition was determined. Inhibitory rate (%)={1−(measured value−blank value)/(control value−blank value)}×100 Test Results 1
compound,measurement,setting,value
"CC(C)C[C@@H]1OC(O)[C@H](CCCCNC(=O)c2ccccc2)NC1=O (stereo partly drawn) [Compound 16, (2S,5S)-5-(4-(benzoylamino)butyl)-6-hydroxy-2-(2-methylpropyl)-3-morpholinone]",melting point,,128.4 to 129 °C
same,IC50,[1],1.1 µM
"CCCCOc1ccc(C[C@@H]2NC(=O)[C@H](CC(C)C)OC2O)cc1 (stereo partly drawn) [Compound 10, (2S,5S)-5-((4-butoxyphenyl)methyl)-6-hydroxy-2-(2-methylpropyl)-3-morpholinone]",IC50,[1],0.52 µM
"CC(C)C[C@@H]1OC(O)[C@@H](Cc2ccccc2)NC1=O (stereo partly drawn) [Compound 4, (2S,5R)-5-benzyl-6-hydroxy-2-(2-methylpropyl)-3-morpholinone]",melting point,,130.9 to 131.8 °C
same,IC50,[1],5.9 µM
"CC(C)[C@@H]1OC(O)[C@H](Cc2ccccc2)NC1=O (stereo partly drawn) [Compound 5, (2S,5S)-5-benzyl-6-hydroxy-2-(1-methylethyl)-3-morpholinone]",IC50,[1],2.3 µM
"(2S,5S)-5-((4-biphenyl)methyl)-6-hydroxy-2-(2-methylpropyl)-3-morpholinone [Compound 15]",IC50,[1],0.25 µM
"CC(C)C[C@@H]1OC(O)[C@H](Cc2ccccc2)NC1=O (stereo partly drawn) [Compound 1, (2S,5S)-5-benzyl-6-hydroxy-2-(2-methylpropyl)-3-morpholinone]",IC50,[1],0.7 µM
"CC(C)C[C@@H]1OC(O)[C@H](Cc2ccc(O)cc2)NC1=O (stereo partly drawn) [Compound 8, (2S,5S)-6-hydroxy-5-((4-hydroxyphenyl)methyl)-2-(2-methylpropyl)-3-morpholinone]",IC50,[1],2.5 µM
"CC(C)C[C@@H]1OC(O)[C@H](CCc2ccccc2)NC1=O (stereo partly drawn) [Compound 2, (2S,5S)-6-hydroxy-2-(2-methylpropyl)-5-(2-phenylethyl)-3-morpholinone]",melting point,,94.1 to 95.8 °C
same,IC50,[1],0.51 µM
"CC(C)C[C@@H]1OC(O)[C@H](Cc2ccccc2Cl)NC1=O (stereo partly drawn) [Compound 13, (2S,5S)-5-((2-chlorophenyl)methyl)-6-hydroxy-2-(2-methylpropyl)-3-morpholinone]",IC50,[1],0.93 µM
"CC(C)C[C@@H]1OC(O)[C@H](Cc2ccc(OCC3CCCCC3)cc2)NC1=O (stereo partly drawn) [Compound 11, (2S,5S)-5-((4-(cyclohexylmethoxy)phenyl)methyl)-6-hydroxy-2-(2-methylpropyl)-3-morpholinone]",IC50,[1],0.45 µM
"O=C1N[C@@H](Cc2ccccc2)C(O)O[C@H]1Cc1ccccc1 (stereo partly drawn) [Compound 7, (2S,5S)-2,5-dibenzyl-6-hydroxy-3-morpholinone]",melting point,,165.5 to 166 °C
same,IC50,[1],17 µM
"CC(C)C[C@@H]1OC(O)[C@H](Cc2ccccc2F)NC1=O (stereo partly drawn) [Compound 12, (2S,5S)-5-((2-fluorophenyl)methyl)-6-hydroxy-2-(2-methylpropyl)-3-morpholinone]",melting point,,83.9 to 87.9 °C
same,IC50,[1],2.1 µM
"CC(C)C[C@@H]1OC(O)[C@H](Cc2ccc3ccccc3c2)NC1=O (stereo partly drawn) [Compound 3, (2S,5S)-6-hydroxy-2-(2-methylpropyl)-5-(2-naphthylmethyl)-3-morpholinone]",melting point,,86.5 to 88.5 °C
same,IC50,[1],0.49 µM
"CC(C)C[C@@H]1OC(O)[C@H](COCc2ccccc2)NC1=O (stereo partly drawn) [Compound 14, (2S,5S)-5-benzyloxymethyl-6-hydroxy-2-(2-methylpropyl)-3-morpholinone]",IC50,[1],0.82 µM
"CC(C)[C@@H]1OC(O)[C@H](CCc2ccccc2)NC1=O (stereo partly drawn) [Compound 6, (2S,5S)-6-hydroxy-2-(1-methylethyl)-5-(2-phenylethyl)-3-morpholinone]",IC50,[1],3.5 µM
"COc1ccc(C[C@@H]2NC(=O)[C@H](CC(C)C)OC2O)cc1 (stereo partly drawn) [Compound 9, (2S,5S)-6-hydroxy-5-((4-methoxyphenyl)methyl)-2-(2-methylpropyl)-3-morpholinone]",IC50,[1],0.68 µM
